Experimental data reported in PubChem BioAssay (NCI).
Where “and” joins values, the source holds several entries; their conditions need not be identical. Equal values may be shown once.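 Tested at 5 concentrations; 48 h exposure; 96-well plates; endpoints linearly interpolated, else capped at highest concentration. Abbreviation: GI50, concentration required for 50% inhibition of growth. The concentration for full growth arrest is given as TGI.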

system: SNB-75 CNS; assay: DTP human tumour cell line panel, 48 h

First: Cc1nnc(NC(=O)c2nc(S(=O)(=O)Cc3ccc(F)cc3)ncc2Cl)s1
Second: Nc1c(C(=O)Nc2cccc(C(F)(F)F)c2)sc2nc3c(cc12)CCCCC3
The GI50 of the first is 1.9-fold higher: 3.25 µM for the first, 1.74 µM for the second.

`CCCCCCCCCCCCC(O)c1ccc(C#CCCCCCCCCCO)o1` (stereo unspecified) and `COc1ccc(CCN=C2NC(=O)/C(=C/c3ccc4ncccc4c3)S2)cc1` cannot be ordered by GI50: 34.1 µM for the first, over 25 µM for the second.

Compared with `Cc1nnc(NC(=O)c2nc(S(=O)(=O)Cc3ccc(F)cc3)ncc2Cl)s1`, `Nc1c(C(=O)Nc2cccc(C(F)(F)F)c2)sc2nc3c(cc12)CCCCC3` is 4.5-fold lower in TGI: 17.6 µM for the first, 3.93 µM for the second.

`CC1(C)OC1COc1c2occc2cc2ccc(=O)oc12` (stereo unspecified) and `COc1ccc(CCN=C2NC(=O)/C(=C/c3ccc4ncccc4c3)S2)cc1` cannot be ordered by TGI: over 100 µM for the first, over 25 µM for the second.

For `CCCCCCCCCCCCC(O)c1ccc(C#CCCCCCCCCCO)o1` (stereo unspecified), the TGI was 70.1 µM.

system: A549 NSCLC; assay: DTP human tumour cell line panel, 48 h

Compared with `CC(=O)CC(OC(C)=O)C1=CCC2C(CC1C)OC(=O)C2C` (stereo unspecified), `C[C@]12CCC3c4ccc(O)cc4CCC3C1CC[C@@]2(O)CNC(=O)/C=C/c1ccc(O)c(O)c1` (stereo partly specified) is lower in TGI: over 100 µM for the first, 9.68 µM for the second.

`O=C(/C(=C/c1ccc([N+](=O)[O-])cc1)SCc1ccccc1)c1ccc(Cl)cc1` and `Nc1ccccc1SC(CC(=O)c1ccccc1)c1cccc([N+](=O)[O-])c1` (stereo unspecified) are within 1.5-fold of each other in TGI: 32.2 µM for the first, 36.7 µM for the second.

Going from `O=C(O)c1ccc2c(c1C(=O)O)C(=O)OC2(c1ccc(O)cc1)c1ccc(O)cc1` to `CN(C)c1cc(NN=C(c2ccc(O)cc2)c2ccc(O)cc2)c([N+](=O)[O-])cc1[N+](=O)[O-]`, the TGI falls from over 100 µM to 18.5 µM.

First: CCN(Cc1ccc(F)cc1)c1cc(Cl)c(CO)c(Cl)c1
Second: CC1SC(c2ccc(F)cc2)N(NC(=O)C(O)c2ccccc2)C1=O (stereo unspecified)
The TGI of the first is lower: 29.1 µM for the first, over 100 µM for the second.

Going from `COc1ccc(/C=N/NC(=O)c2cccc3cc[nH]c23)cc1O` to `O=C(Oc1ccc(Cl)cc1)c1ccccc1Nc1ccnc(C(F)(F)F)c1`, the TGI falls from over 100 µM to 52.3 µM.

`N#Cc1c[nH]n2c(N=Nc3ccc(Cl)cc3)c(O)nc12` and `CN1CC[C@@H](NC(=O)Nc2ccc(C#N)cc2)C[C@@H]1c1nc2ccccc2[nH]1` cannot be ordered by TGI: over 100 µM for the first, over 100 µM for the second.

Going from `O=S(=O)(c1ccccc1)N1CCN(S(=O)(=O)c2ccccc2)c2ccccc21` to `O=C(CCCSc1nc(-c2ccccc2)cc(-c2ccccc2)n1)NO`, the TGI falls from over 100 µM to 10.1 µM.

`COc1cc(-c2ccc3cc(OC)c(OC)c(OC)c3c2)cc(OC)c1OC` and `COc1ccc(-c2cn[nH]c2-c2cc(OC)c(OC)c(OC)c2)cc1` cannot be ordered by TGI: over 100 µM for the first, over 38.7 µM for the second.

Compared with `CCOC(=O)C1=C(C)N(c2ccc(F)cc2F)[C@]2(C#N)C(O)=C(Cl)C(Cl)=C(O)[C@]12C#N`, `Nc1n[nH]c2cccc(C#Cc3cccc(C(=O)Nc4ccc(CN5CCOCC5)c(C(F)(F)F)c4)c3)c12` is lower in TGI: over 100 µM for the first, 11.3 µM for the second.

`Cc1csc(-c2nnc(Nc3ccc(Oc4ncccc4-c4ccnc(N)n4)cc3)c3ccccc23)c1` and `COc1ccc2nc(NC(=O)CSc3nnc4n3S(=O)(=O)c3ccccc3N4c3ccccc3)sc2c1` cannot be ordered by TGI: over 100 µM for the first, over 100 µM for the second.

Going from `COc1cc(C2CC(C)(O)Oc3cc4c(cc32)OCO4)cc(OC)c1OC` (stereo unspecified) to `COCCOc1ccc(-c2nc3ccc(-c4nc5ccc(N6CCN(C)CC6)cc5[nH]4)cc3[nH]2)cc1`, the TGI falls from over 100 µM to 35.2 µM.

First: CCCCCCCCCCn1cc[n+](C)c1
Second: O=C1CCCCN1c1ccccc1C#C/C=C\C#Cc1ccccc1C(F)(F)F
The TGI of the first is 4.4-fold higher: 22.5 µM for the first, 5.16 µM for the second.

`O=C(/C(=C/c1ccc([N+](=O)[O-])cc1)SCc1ccccc1)c1ccc(Cl)cc1` and `Nc1ccccc1SC(CC(=O)c1ccccc1)c1cccc([N+](=O)[O-])c1` (stereo unspecified) are within 1.5-fold of each other in GI50: 15.1 µM for the first, 18.6 µM for the second.

Compared with `C[C@]12CCC3c4ccc(O)cc4CCC3C1CC[C@@]2(O)CNC(=O)/C=C/c1ccc(O)c(O)c1` (stereo partly specified), `COc1ccc(/C=N/NC(=O)c2cccc3cc[nH]c23)cc1O` is 2-fold higher in GI50: 2.63 µM for the first, 5.36 µM for the second.

Going from `CCN(Cc1ccc(F)cc1)c1cc(Cl)c(CO)c(Cl)c1` to `CC1SC(c2ccc(F)cc2)N(NC(=O)C(O)c2ccccc2)C1=O` (stereo unspecified), the GI50 rises from 12.3 µM to over 100 µM.

Going from `N#Cc1c[nH]n2c(N=Nc3ccc(Cl)cc3)c(O)nc12` to `O=C(Oc1ccc(Cl)cc1)c1ccccc1Nc1ccnc(C(F)(F)F)c1`, the GI50 falls from 31.9 µM to 15.3 µM (2.1-fold).

Going from `CN(C)c1cc(NN=C(c2ccc(O)cc2)c2ccc(O)cc2)c([N+](=O)[O-])cc1[N+](=O)[O-]` to `Cc1csc(-c2nnc(Nc3ccc(Oc4ncccc4-c4ccnc(N)n4)cc3)c3ccccc23)c1`, the GI50 falls from 4.45 µM to 1.95 µM (2.3-fold).

First: COc1cc(-c2ccc3cc(OC)c(OC)c(OC)c3c2)cc(OC)c1OC
Second: COc1ccc(-c2cn[nH]c2-c2cc(OC)c(OC)c(OC)c2)cc1
The GI50 of the first is 220-fold higher: 7.66 µM for the first, 0.0346 µM for the second.

Compared with `CCOC(=O)C1=C(C)N(c2ccc(F)cc2F)[C@]2(C#N)C(O)=C(Cl)C(Cl)=C(O)[C@]12C#N`, `Nc1n[nH]c2cccc(C#Cc3cccc(C(=O)Nc4ccc(CN5CCOCC5)c(C(F)(F)F)c4)c3)c12` is lower in GI50: over 100 µM for the first, 3.13 µM for the second.

First: CCCCCCCCCCn1cc[n+](C)c1
Second: COCCOc1ccc(-c2nc3ccc(-c4nc5ccc(N6CCN(C)CC6)cc5[nH]4)cc3[nH]2)cc1
The GI50 of the first is 2.1-fold lower: 3.79 µM for the first, 8.05 µM for the second.

First: O=C(CCCSc1nc(-c2ccccc2)cc(-c2ccccc2)n1)NO
Second: COc1ccc2nc(NC(=O)CSc3nnc4n3S(=O)(=O)c3ccccc3N4c3ccccc3)sc2c1
The GI50 of the first is lower: 2.63 µM for the first, over 100 µM for the second.

Going from `CCC(=C/[C@H](C)C/C=C/C(C)=C/[C@@H](C)C(=O)[C@@H](C)[C@H](O)[C@@H](C)CC)/C=C/[C@H]1OC(=O)C=C[C@@H]1C` to `CN1CC[C@@H](NC(=O)Nc2ccc(C#N)cc2)C[C@@H]1c1nc2ccccc2[nH]1`, the GI50 rises from under 0.01 µM to over 100 µM.

Compound `O=C1CCCCN1c1ccccc1C#C/C=C\C#Cc1ccccc1C(F)(F)F` has a GI50 of 1.57 µM.

With `CC1(COc2ccc3c(c2)ncn3-c2ccc3cccc(N4CCC(N)CC4)c3n2)COC1` the GI50 was 1.83 µM and 2.39 µM.

`CC1(COc2ccc3c(c2)ncn3-c2ccc3cccc(N4CCC(N)CC4)c3n2)COC1` was tested, and the TGI was 4.45 µM and > 10 µM.
